Reference: patent US20050238580A1 (priority 2002, published 2005)

Key:
[1] = Gastrointestinal tolerability of the oral intake of 4-galactosyl-xylose in adult human volunteers; assay type: in vivo
[2] = target: T1, intestinal lactase (Rattus norvegicus, UniProt Q02401); experiment: Excretion of xylose in urine after oral 4-galactosyl-xylose versus intestinal lactase activity in unweaned rats; assay type: in vivo
T1 construct: hydrolysis of the 4-galactosyl-xylose administered is detected by the action of intestinal lactase; from tissue; host or cells: small-intestinal mucous membrane of living unweaned rats (in vivo); activity also measured post mortem in mucosa homogenate
T1 sequence (Q02401 868-1928): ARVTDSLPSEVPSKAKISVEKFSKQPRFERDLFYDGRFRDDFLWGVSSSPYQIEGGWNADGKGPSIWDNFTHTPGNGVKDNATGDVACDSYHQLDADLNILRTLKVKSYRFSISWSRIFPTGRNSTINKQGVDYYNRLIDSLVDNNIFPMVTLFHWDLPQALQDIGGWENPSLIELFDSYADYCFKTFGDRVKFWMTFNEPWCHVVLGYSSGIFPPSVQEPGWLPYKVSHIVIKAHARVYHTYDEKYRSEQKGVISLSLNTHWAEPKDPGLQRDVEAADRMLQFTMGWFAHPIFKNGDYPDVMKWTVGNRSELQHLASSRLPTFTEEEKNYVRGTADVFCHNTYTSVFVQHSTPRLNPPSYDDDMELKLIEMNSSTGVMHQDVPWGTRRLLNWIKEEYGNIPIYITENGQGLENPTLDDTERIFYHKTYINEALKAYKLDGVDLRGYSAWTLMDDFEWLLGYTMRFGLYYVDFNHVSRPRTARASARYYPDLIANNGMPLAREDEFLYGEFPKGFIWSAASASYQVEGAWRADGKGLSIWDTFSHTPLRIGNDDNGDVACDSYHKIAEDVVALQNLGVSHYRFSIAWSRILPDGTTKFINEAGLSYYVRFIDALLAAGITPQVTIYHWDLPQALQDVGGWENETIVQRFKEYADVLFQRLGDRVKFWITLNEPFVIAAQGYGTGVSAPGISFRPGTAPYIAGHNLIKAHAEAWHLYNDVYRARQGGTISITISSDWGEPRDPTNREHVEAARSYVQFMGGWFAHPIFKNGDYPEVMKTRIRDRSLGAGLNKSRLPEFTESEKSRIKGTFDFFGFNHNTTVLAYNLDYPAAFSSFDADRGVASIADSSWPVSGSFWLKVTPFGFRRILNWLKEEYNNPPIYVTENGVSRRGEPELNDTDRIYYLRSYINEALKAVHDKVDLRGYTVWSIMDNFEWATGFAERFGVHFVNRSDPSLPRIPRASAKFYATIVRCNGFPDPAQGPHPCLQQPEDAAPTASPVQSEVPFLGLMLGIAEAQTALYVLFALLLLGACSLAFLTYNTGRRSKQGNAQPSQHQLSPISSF
Source text: Correlation between the excretion of xylose in urine and the presence of xylose in blood after oral administration of 4-galactosyl-xylose with intestinal lactase activity. This has been shown in unweaned rats comparing during the growth of these animals, the excretion of xylose in urine after orally administering to them 4-galactosyl-xylose, with lactase activity evaluated postmortem in the intestinal mucous membrane, which is known to physiologically reduce during growth. For this purpose, a group comprised of 20 12-day old unweaned rats belonging to two litters fasted for 6 hours by being separated from the mother. […] Immediately after the urine has been collected, four of the animals were sacrificed and the lactase activity in the intestinal mucous membrane was directly evaluated. […] The lactase activity in the homogenized product was measured spectrophotometrically. […] Therein one can see: 1) That the presence of xylose in urine coming from the hydrolysis of the 4-galactosyl-xylose administered is detected by the action of intestinal lactase; 2) That the rate of excretion of xylose in urine caused by oral administration of 4-galactosyl-xylose during the growth of the animals, runs parallel to the known physiological modification of intestinal lactase activity that reduces during growth. […]

linear correlation coefficient (r) between excretion of xylose in urine and intestinal lactase activity ([2]; unweaned rats aged 12 to 35 days, 4 mg oral, urine of 6 hours, lactase evaluated postmortem in intestinal mucous membrane): 0.96
SMILES: OCC1O[C@@H](O[C@@H]2COC(O)C(O)[C@H]2O)C(O)[C@@H](O)[C@H]1O (some centres unmarked)
gastrointestinal discomfort or disorders ([1]; 8 adult volunteers with lactose tolerance, 0.25 g oral): did not cause any gastrointestinal discomfort or disorder | gastrointestinal discomfort or disorders ([1]; individual 1 with lactose tolerance, 1 g oral): did not cause any gastrointestinal discomfort or disorders | gastrointestinal discomfort or disorders ([1]; individual 12 with lactose intolerance and two individuals with lactose tolerance, 3 g oral): did not result in any gastrointestinal discomfort or disorder | gastrointestinal discomfort or disorders ([1]; individual 13, allergy to milk components, 0.25 g oral): did not cause any gastrointestinal discomfort or disorder | gastrointestinal discomfort or disorders ([1]; individuals 1 and 2 with lactose tolerance, 0.25 g, 0.5 g and 3 g oral): did not cause any gastrointestinal discomfort or any disorder | gastrointestinal discomfort or disorders ([1]; individuals 12 and 5 with lactose intolerance, 0.25 g oral): did not cause any gastrointestinal discomfort or disorders | dose dependence of excretion of xylose in urine ([2]; unweaned rats, oral doses from 2 to 32 mg in 0.3 ml of water): increases with the increase of the amount of 4-galactosyl-xylose administered
